Results on 16 compounds are retold here after patent US20070111251A1, “Chemical address tags” (priority 2003, published 2007).

SMILES strings stand for the structures.

Data set [1] deals with live UACC-62 human melanoma cells. The experiment in a line: Organelle-binding test: subcellular localization of styryl library compounds by fluorescence microscopy. The format is cell-based. On the set-up: key to experimentally determined localization (subscript): The subscript m indicates experimentally determined mitochondrial localization; The subscript o indicates experimentally determined non-mitochondrial localization. Conditions: for experimentally determined localization (subscript): mitochondrial vs non-mitochondrial, live UACC-62 cells. The procedure: The synthesis was designed so that the reaction mixture can be used directly in biological screening; toxic catalysts (e.g., such as strong acids, bases, and metals) were avoided, and most of the low-boiling point solvents and catalysts (e.g., pyrrolidine) were removed during the microwave reaction, leaving only DMSO, a common solvent for biological sample preparation. In some embodiments, without further purification, the library compounds were incubated with live UACC-62 human melanoma cells growing on glass bottom 96-well plates, and the localizations of the different compounds in the cells were determined using an Axiovert (Carl Zeiss, Inc., Thornwood, N.Y.) microscope (λex=405, 490, and 570 nm; λem>510 nm) with a 100× Zeiss oil immersion objective. […] The images in FIG. 5 show cells stained with selected fluorescent compounds.
Unless otherwise noted in this example, the materials and solvents were obtained from commercial suppliers and were used without further purification. The plate reader used in this example was a Spectra Max Gemini XSF (Molecular Devices, Corp., Sunnyvale, Calif.). In preferred embodiments, for organelle-binding tests, UACC-62 melanoma cells were selected amongst a panel of 60 human cancer cell lines, because their well-spread morphology on glass made them ideally suited for imaging purposes as well as their relevance to biomedical research. (See e.g., R. H. Shoemaker et al., Development of human tumor cell line panels for use in disease oriented drug screening. In: Hall, T. ed., Prediction of Response to Anti-cancer Chemotherapy, New York N.Y.: Alan Liss, 265-286 [1988]).
In some of these embodiments, UACC-62 cells (obtained from the Developmental Therapeutics Program at the National Cancer Institute) were grown in RPMI medium supplemented with 10% fetal calf serum. For microscopy, cells were plated on 96 well tissue-culture plates (Falcon) overnight, in RPMI plus 10% fetal calf serum, at 37° C. in 5% CO2/95% air. Cells were incubated with compounds at an approximate concentration of 50 μM for 1 hour.
A Zeiss Axiovert 135M (Carl Zeiss, Inc., Thornwood, N.Y.) inverted fluorescence microscope outfitted with a FITC/TRITC multipass filter cube (Chroma Technology, Corp., Rockingham, Vt.) was used for screening and routine cell biological fluorescence imaging applications. In some embodiments, epifluorescence microscopy was performed using a Zeiss Axiovert epifluorescence microscope equipped with a 20× objective.
The library compounds, without further purification, were incubated with live UACC-62 human melanoma cells growing on glass bottom 96-well plates (Sigma-Aldrich Corp., St. Louis, Mo.), and the localizations of the different compounds in the cells were determined by an inverted fluorescence microscope (λex=405, 490, and 570 nm; λem>510 nm) at 1000× magnification. Based on their morphology and subcellular distribution, the localizations were ascribed to mitochondria, ER (endoplasmic reticulum), nucleoli, nuclear, and cytoplasmic staining patterns such as diffuse (based on the homogenous staining appearance and exclusion from the nucleus), granular (punctate staining pattern, generally associated with the cell margins) or vesicular (heterogeneous staining pattern, generally associated with the nuclear periphery). Localization studies were performed without a priori information of the compounds' molecular structures. It was possible to ascribe the localization of the compounds to nucleus or cytoplasm, as these organelles are clearly discernible with phase contrast optics. Similarly, it was possible to ascribe localization to nucleoli, as these structures appeared as the most prominent, phase-dense structures within the nucleus. Localization to mitochondria was based on the elongated, characteristic shape of these organelles, which stain positive with established mitochondrial-specific fluorescent probes, like […] or JC-1. (L. B. Chen, Methods Cell Bio., 29:103-123 [1989]). […]

The next data set deals with mitochondria. The experiment in a line: QSLR factorial logistic regression of mitochondrial localization (affinity coefficients, cross-validated prediction). On the set-up: species or system human. Particulars: for αi^mito: influence of A group on mitochondrial localization, greater = stronger; for estimated A group affinity coefficient ai / estimated B group affinity coefficient bj: mitochondrial affinity; for estimated A group affinity coefficient ai: ±5 for groups always or never mitochondrial; for βj^mito: influence of B group on mitochondrial localization. From the text: The first column and first row contain the A group and B group labels. The second column and second row contain the estimated A group and B group affinity coefficients (ai and bj respectively). The interior of the table contains the value sij=ai+bj for each compound (where positive values of sij indicate predicted localization to mitochondria, and negative values of sij indicate predicted localization to a non-mitochondrial compartment). The subscript m indicates experimentally determined mitochondrial localization. The subscript o indicates experimentally determined non-mitochondrial localization. The darkened boxes indicate correctly predicted mitochondrial localizations under cross-validation.
Based on this matrix, factorial logistic regression (See, A. Agresti, Categorical Data Analysis, Wiley [2002]) was used to calculate mitochondrial affinity coefficients (ai and bj) for each A and B moiety. (Table 1). Since it is not necessary to observe all possible pairings between A and B building blocks to estimate the affinity coefficients, the QSLR approach can predict localization of unmeasured styryl molecules based on a minimal set of experimentally-determined localizations (see Methods). The methods of the present invention allow assessment of predictivity using the cross-validation technique by holding out one compound and fitting the affinity coefficients using the remaining compounds, predictivity can be assessed by comparing the actual localization of the held-out compound to its predicted localization. Repeating this for every measured compound in the library yields an error rate for the procedure.
Briefly, this technique assigns quantitative scores to each A group (αi^mito) and to each B group (βj^mito), in such a way that αi^mito+βj^mito is positive for compounds with mitochondrial localization, and is negative for compounds lacking mitochondrial localization. […] In additional embodiments, same analysis can be applied to organelles other than mitochondria, provided there are a sufficient number of localizations to specific non-mitochondrial organelles in the combinatorial library of interest for reliable statistical calculations.
In certain embodiments, the predictive performance of the above method was assessed using a cross-validation approach by calculating the proportion of all compounds that are correctly predicted. For cross-validation, each styryl product was set aside in sequence, and the factorial logistic model was fit to the remaining data. Then the resulting A and B scores for the held-out compound were summed. If the sum was positive, the held-out compound was predicted to be mitochondrial, while if the sum was negative, the held-out compound was predicted to be non-mitochondrial. […] The baseline performance of the method scored 104 correct out of 145, or 72%. This number is highly statistically significant compared to random guessing (p-value ˜10^−7). Thus, across the entire library, A and B moieties appear to contribute to localization in an independent, additive fashion.
In some embodiments, subcellular localization data were converted to binary (0/1) values by assigning a value Gij=1 if compound i,j localized to mitochondria (even if it localized to other […] as well), and assigning Gij=0 if compound i,j localized exclusively to any non-mitochondrial cellular structure. Compounds with no localization were omitted from this part of the analysis. The αi and βj coefficients for A or B groups that are always observed to localize to mitochondria, or that never localize to mitochondria, were set to +/−5, respectively. The binary localization data were analyzed using factorial logistic regression. […]

Data set [2] can be described thus: Additive decomposition of peak excitation and emission wavelengths (model coefficients of A and B groups). Particulars: for αi^em: influence of A group on peak emission wavelength; for αi^em / αi^ex: A group 1 as baseline; for αi^ex: influence of A group on peak excitation wavelength; for βj^em: influence of B group on peak emission wavelength; for βj^em / βj^ex: B group 1 as baseline; for βj^ex: influence of B group on peak excitation wavelength. From the text: The chemical structure of the styryl library is illustrated in FIG. 3. […] Initial analysis focused on measurements of peak emission and excitation wavelength obtained for all styryl products showing a single, localized peak (there were 256 such compounds for emission wavelength, and 193 compounds for excitation wavelength). […] The wavelength for the styryl compound formed by joining A group i with B group j is denoted as λij (or more specifically, λij^ex for excitation wavelength and λij^em for emission wavelength). The additive model λij=ai+βj+εij was fit to the data using least squares yielding parameters αi^ex, αi^em, βj^ex, and βj^em that quantify the influence of each A and B group on the spectrum of the styryl product. […] (FIGS. 8A-8B). […] The predictions were made ignoring interactions between the two functional moieties in the styryl compound. The predicted values were obtained without bias, by holding out the data point to be predicted when training the model.
In preferred embodiments, using the cross-validation approach disclosed herein, each compound was held out in sequence, the model was trained using the remaining compounds, then the wavelength value for the held-out compound was predicted based on the resulting fitted model. This process produced correlations between measured and predicted values of ρ^em=0.78 (emission) and ρ^ex=0.69 (excitation).
Based on this analysis, the contribution of the A and B functional groups to the fluorescence of the styryl product is quantified using the fitted coefficients αi^ex, βj^ex, […], and βj^em. Since these coefficients are on a scale without origin, in some embodiments, the invention uses the first A group and B group as a baseline, so […], β1^ex=0, and so on. Table 3 contains the model coefficients of all A and B groups for peak excitation and emission wavelength.
Greater values of αi^ex, αi^em, βj^ex, and βj^em indicate greater peak wavelength. Greater values of αi^mito and […] indicate stronger mitochondrial localization. A groups 40 and 41 were not screened for localization. A groups 2, 29, and 33 only formed fluorescent products with a single B group, so were not included in the spectral analysis.
In some embodiments, the wavelength values for peak excitation and emission were fit to the additive model λij=αi+βj+εij, where εij denotes error that is made as small as possible in the fitting process. Using least squares to minimize the function [formula] over all compounds having experimental data yields coefficient estimates αi for each A group and βj for each B group. One set of coefficient estimates is obtained for the excitation values and another set is obtained for the emission values. To predict the wavelength of a new compound formed from A and B groups i* and j* the sum αi*+βj* is used.
In some embodiments, for both the spectral and localization analysis, cross-validation was used to obtain unbiased estimates of the prediction performance. Each compound was held out in sequence, and the coefficients αi and βj were fit to the remaining compounds. These values were then used to form a prediction for the held out compound, then the predicted and experimental values were compared to obtain a measure of the accuracy of prediction. Since the wavelength values are on a continuous scale, the predicted values were compared to the experimental values using Pearson correlation coefficients. The localization values are dichotomous, so the proportion of matching predictions was used to compare predicted and experimental localization values.

With `Oc1ccc(C=Cc2cc[n+](C34CC5CC(CC(C5)C3)C4)cc2)cc1.[Br-]` [Compound A16-B2], the “experimentally determined localization (subscript)” value (shortened to “experimentally”) in data set [1] is on record as “m”.
The same measure, in the same setting: under `COc1ccc2c(ccc(C=Cc3cccc([N+](=O)[O-])c3)[n+]2C)c1.[I-]` [Compound A21-B9] stands “o”; under `COc1cc(OC)c(OC)cc1C=Cc1cc[n+](C23CC4CC(CC(C4)C2)C3)cc1.[Br-]` [Compound A38-B2], “m”; under `COc1ccc(C=Cc2ccc3cc(OC)ccc3[n+]2C)cc1.[I-]` [Compound A10-B9], “o”.
Consider `Cc1ccc[n+](C)c1C=CC=Cc1ccc(N(C)C)cc1.[I-]` [Compound A37-B4], for which, in data set [1], the “experimentally” value is “m”.
Consider `COc1ccc2ccccc2c1C=Cc1cc[n+](C)cc1.[I-]` [Compound A23-B1], for which the “experimentally” value in data set [1] is listed as “m”.
For the compound `Cc1ccnc(-c2cc(C=CC=Cc3ccc(N(C)C)cc3)cc[n+]2C)c1.[I-]` [Compound A37-B10], the representative localization result in data set [1] (FIG. 5, live UACC-62 cells) is on record as “reticular”. The “experimentally” value in data set [1] is given as “o”.
As to `COc1ccc2c(ccc(C=CCc3ccccc3)[n+]2C)c1.[I-]` [Compound A1-B9], the “experimentally” value in data set [1] is “m”.
Regarding `O=Cc1cccc(Br)c1` [A group 4], in the data set on mitochondria, the “αi^mito” value is recorded as −5.0 and the “estimated A group affinity coefficient ai” value is given as −5.0. In data set [2], the “αi^em” value amounted to 23.5 nm and the “αi^ex” value was −34.0 nm.
Turning to `O=Cc1ccc(O)cc1` [A group 16], in the data set with mitochondria, the “αi^mito” value is listed as −1.9 and the “estimated A group affinity coefficient ai” value was −1.9. Moreover, in data set [2], the “αi^em” value was −24.8 nm and the “αi^ex” value is −36.3 nm.
Consider `O=Cc1c(F)c(F)c(F)c(F)c1F` [A group 31], for which, in the data set with mitochondria, the “αi^mito” value was 5.0 and the “estimated A group affinity coefficient ai” value was 5.0. Besides, in data set [2], the “αi^em” value was determined as 6.9 nm and the “αi^ex” value is −22.4 nm.
Take `COc1ccc2ccccc2c1C=O` [A group 23]: in the data set with mitochondria, the “αi^mito” value is listed as −5.0 and the “estimated A group affinity coefficient ai” value is listed as −5.0. Besides, in data set [2], the “αi^em” value was −10.3 nm and the “αi^ex” value was 6.1 nm.
Consider `O=Cc1cccc2ccccc12` [A group 32], for which, in the data set with mitochondria, the “αi^mito” value was 5.0 and the “estimated A group affinity coefficient ai” value is recorded as 5.0. Also, in data set [2], the “αi^em” value is −15.0 nm and the “αi^ex” value is reported as −36.1 nm.
As to `Cc1cccc[n+]1C.[I-]` [B group 3], in the data set on mitochondria, the “βj^mito” value is listed as 4.2 and the “estimated B group affinity coefficient bj” value is on record as 4.2. In data set [2], the “βj^em” value is given as −2.7 nm and the “βj^ex” value is listed as −12.7 nm.
In the case of `Cc1cccc(C)[n+]1C.[I-]` [B group 12], in the data set with mitochondria, the “βj^mito” value is reported as 2.7 and the “estimated B group affinity coefficient bj” value is reported as 2.7. In data set [2], the “βj^em” value is given as −1.7 nm and the “βj^ex” value was −10.2 nm.
Regarding `CC(=O)Nc1ccc(C=O)cc1` [A group 18], in the data set on mitochondria, the “αi^mito” value was 0.8 and the “estimated A group affinity coefficient ai” value was 0.8. Further, in data set [2], the “influence of group on peak wavelength” value was “strongly contribute towards the red end of the spectrum”, the “αi^em” value came to 51.2 nm and the “αi^ex” value was −24.3 nm.
